Assay results published in patent publication US5086047A, “Novel steroids” (Roussel Uclaf, Department des Brevets, priority 1989, dated 1992).
Like-named read-outs stand apart in the source and are kept apart here.

Key:
seric estradiol = experiment: Amount of estradiol circulating in rats induced with P.M.S.G.; format: in vivo, rat; settings: female rats, PMSG 100 I.U., ** p<0.01
Method: I-AMOUNT OF ESTRADIOL CIRCULATING IN RATS INDUCED WITH P.M.S.G.
(Pregnant Mare Serum Gonadotrophine)
Female rats weighing 150 g were induced by an injection of P.M.S.G. (100 I.U./rat/sc). After 90 hours, the animals were treated with the product under test (sc or po) and a blood sample was taken before and after treatment to measure the amount of seric estradiol.
DO, -90 h: injection of 100 I.U. of PMSG/rat.
DO, 0 h: sample of blood from […] then treatment with the product under test.
DO, +2 h: sample of blood.
DO, +6 h: killing of animals and collection of blood.
After coagulation and centrifugation of the blood, the serum was recovered which was dosed with estradiol (E2) by means of an RIA dosage kit (Baxter ER155). The results were expressed as a percentage variation relative to the amount of estradiol at time 0 (each animal is its own control). The statistical test used is the Mann-Whitney U-test (*:p<0.05; **:p<0.01).

[1] = target: T1, aromatase (cytochrome P450 aromatase) (Homo sapiens, UniProt P11511); experiment: Aromatase inhibition in vitro, human placental microsomes, tritiated water release from 1β,2β-(H^3)-Androstenedione; format: biochemical
T1 construct: This supernatant was then subjected to an ultra-centrifugation stage (90 minutes, 150,000 g) to obtain the microsomal deposit; from tissue; host or cells: human placenta, microsomal fraction
T1 sequence (P11511 1-503): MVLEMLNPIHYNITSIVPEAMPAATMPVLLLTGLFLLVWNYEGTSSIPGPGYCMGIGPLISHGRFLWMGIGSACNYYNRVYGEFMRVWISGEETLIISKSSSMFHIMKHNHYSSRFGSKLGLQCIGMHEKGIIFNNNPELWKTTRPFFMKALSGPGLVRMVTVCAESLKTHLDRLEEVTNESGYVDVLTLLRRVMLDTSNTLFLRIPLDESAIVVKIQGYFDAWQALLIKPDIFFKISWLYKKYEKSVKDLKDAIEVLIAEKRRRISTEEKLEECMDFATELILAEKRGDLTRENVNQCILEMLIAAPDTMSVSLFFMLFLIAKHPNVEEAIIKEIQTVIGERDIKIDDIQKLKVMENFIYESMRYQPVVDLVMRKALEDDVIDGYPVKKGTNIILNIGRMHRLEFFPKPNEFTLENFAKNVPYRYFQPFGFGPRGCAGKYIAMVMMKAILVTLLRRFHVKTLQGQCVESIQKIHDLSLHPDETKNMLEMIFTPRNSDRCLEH
Method: Inhibition dependent on the concentration (measurement of the IC50 =concentration of the inhibitor necessary to reduce the enzymatic activity by 50%).
Human placentas were used which were washed one hour at most after delivery, perfused with physiological serum (5 liters) via the umbilical vein and then deep-frozen at -40° C.
The placentas were thawed at 4° C. and then homogenized (1:3) in a 10 mM phosphate buffer, pH=7.0 containing 100 millimoles of potassium chloride (KCl), 10 millimoles of dithiothreitol (DTT), 10 millimoles of ethylenediamine-tetraacetic acid (EDTA), 40 millimoles of nicotinamide and 250 millimoles of sucrose. The homogenates were then subjected to different phases of centrifugation until the "9000 g" supernatant was obtained (corresponding to cytosol and to endoplasmic reticulum). This supernatant was then subjected to an ultra-centrifugation stage (90 minutes, 150,000 g) to obtain the microsomal deposit. The microsomes were then resuspended in a 50 mM phosphate buffer, pH=7.4, containing 100 millimoles KCl, 1 millimole EDTA, 1 millimole DTT and glycerol (10%). The microsomal suspension was aliquoted and the fractions deep-frozen at the temperature of liquid nitrogen. The concentration of proteins in the microsomal suspension was determined by the BRADFORD method (BRADFORD., Anal. Biochem., Vol. 72, (1976) 248).
To 960 microliters of phosphate buffer (50 millimoles, pH=7.2) 2.5 millimoles glucose-6-phosphate, and containing 0.16 international units of glucose-6-phosphate dehydrogenase (G-6-PDH), the following were added in this order:
1) -10 microliters of inhibitor solubilized in dimethyl-sulfoxide (DMSO) to give final concentrations from 10^-5 M to 10^-10 M.
2) -10 microliters of substrate which was 500 nM Androstenedione solubilized in ethanol and containing 1β,- 2β-(H^3)-Androstenedione in a known isotopic dilution (approx. 200,000 disintegrations per minute).
3) 10 microliters of microsomal suspension equivalent to 25 micrograms of proteins per test.
The enzymatic reaction was then very rapidly initiated by the addition of 10 microliters of reduced nicotinamide adenine dinucleotide phosphate (NADPH) solubilized in water. After stirring, each test was incubated at 37° C. for 10 minutes. The reaction was then stopped by the addition of chloroform (4 ml).
After vigorous stirring of the tubes, they were decanted and centrifuged at 4° C. for 10 minutes at a speed of 3000 r.p.m. (rotations per minute), that is 600 X g. After centrifuging, and for each tube, 100 microliters of supernatant was removed and counted in the presence of a scintillating liquid. This method was derived from the procedures described by Reed et al, (J. Biol. Chem., Vol. 251, (1976), p. 1625) and Thompson et al, (J. Biol. Chem., Vol. 249, (1974), p. 5364). The enzymatic activity (aromatase) was proportional to the percentage of tritium salted out in the form of tritiated water (H^3 20) in the course of the reaction. The inhibition obtained for each concentration of each inhibiting product of the invention was calculated as a percentage of the controls (arbitrary 100%, obtained in the absence of any inhibitor). The CI50 was equal to the concentration of inhibitor necessary to decrease the enzymatic activity by 50% and the values of the CI50 's obtained for the inhibiting products of the invention are as follows: […]

[2] = Parenterally (so in the source), 5 mg/kg
[3] = human placental microsomes, Androstenedione 500 nM, 37° C., 10 minutes, read-out: CI50 (concentration of inhibitor necessary to decrease the enzymatic activity by 50%)

SMILES: CSCC[C@]12CC[C@@H](O)C=C1CC[C@@H]1C2=CC[C@]2(C)[C@@H](O)CC[C@@H]12 [Example 26 (3 alpha OH)]
- percentage variation relative to the amount of estradiol at time 0, +2 h (seric estradiol; [2]): -53 percentage variation
- percentage variation relative to the amount of estradiol at time 0, +6 h (seric estradiol; [2]): -53 percentage variation

SMILES: C#CSCC[C@]12CCC(=O)C=C1CC[C@@H]1C2=CC[C@]2(C)C(=O)CC[C@@H]12 [Example 21, 10β-[2-(ethynylthio)-ethyl]-Δ^4,9(11) -estradiene-3,17-dione]
- IC50 [1, 3]: 330 nM

SMILES: CSCC[C@]12CCC(=O)CC1CC[C@@H]1C2=CC[C@]2(C)C(=O)CC[C@@H]12 (stereo partly drawn) [Example 31, 10β-[2-(methylthio)-ethyl]-Δ^9(11) -estren-3,17-dione]
- IC50 [1, 3]: 5.5 nM
- percentage variation relative to the amount of estradiol at time 0, +2 h (seric estradiol; [2]): -69 percentage variation
- percentage variation relative to the amount of estradiol at time 0, +6 h (seric estradiol; [2]): -56 percentage variation

SMILES: CSCC[C@]12CCC(=O)C=C1CC[C@@H]1C2=CC[C@]2(C)[C@@H](OC(=O)CCC(=O)O)CC[C@@H]12 [Example 27, Butanedioate of 10β-[2-(methylthio)-ethyl]-3-oxo-Δ^4,9(11) -estradien-17β-yl and of sodium]
- percentage variation relative to the amount of estradiol at time 0, +2 h (seric estradiol; [2]): -58 percentage variation
- percentage variation relative to the amount of estradiol at time 0, +6 h (seric estradiol; [2]): -45 percentage variation
- percentage variation relative to the amount of estradiol at time 0, +2 h (seric estradiol; Subcutaneously, 1 mg/kg): -56 percentage variation
- percentage variation relative to the amount of estradiol at time 0, +6 h (seric estradiol; Subcutaneously, 1 mg/kg): -20 percentage variation

SMILES: C[C@]12CC=C3[C@@H](CCC4=CC(=O)CC[C@@]43CCSCF)[C@@H]1CCC2=O [Example 22]
- IC50 [1, 3]: 500 nM

SMILES: CSCC[C@]12CC[C@H](O)C=C1CC[C@@H]1C2=CC[C@]2(C)[C@@H](O)CC[C@@H]12 [26 (3 beta OH), 10β-[2-(methylthio)-ethyl]-Δ^4,9(11) estradien-3β,17β-diol]
- IC50 [1, 3]: 165 nM
- percentage variation relative to the amount of estradiol at time 0, +2 h (seric estradiol; [2]): -63 percentage variation
- percentage variation relative to the amount of estradiol at time 0, +6 h (seric estradiol; [2]): -64 percentage variation

SMILES: CSCC[C@]12CCC(=O)C=C1CC[C@@H]1C2=CC[C@]2(C)C(=O)CC[C@@H]12 [Example 1, 10β-[2-(methylthio)-ethyl]-Δ^4,9(11) -estradiene-3,17-dione]
- IC50 [1]: 20 nM
- percentage variation relative to the amount of estradiol at time 0, +2 h (seric estradiol; [2]): -51 percentage variation
- percentage variation relative to the amount of estradiol at time 0, +6 h (seric estradiol; [2]): -51 percentage variation
- percentage variation relative to the amount of estradiol at time 0, +2 h (seric estradiol; Subcutaneously, 1 mg/kg): -55 percentage variation
- percentage variation relative to the amount of estradiol at time 0, +6 h (seric estradiol; Subcutaneously, 1 mg/kg): -68 percentage variation

SMILES: CSCC[C@]12CCC(=O)C=C1CC[C@@H]1C2=CC[C@]2(C)[C@@H](O)CC[C@@H]12 [Example 13, 10β-[2-(methylthio)-ethyl]-Δ^4,9(11) -estradien-17-ol-3-one]
- IC50 [1, 3]: 50 nM
- percentage variation relative to the amount of estradiol at time 0, +2 h (seric estradiol; [2]): -70 percentage variation
- percentage variation relative to the amount of estradiol at time 0, +6 h (seric estradiol; [2]): -53 percentage variation
- percentage variation relative to the amount of estradiol at time 0, +2 h (seric estradiol; Subcutaneously, 1 mg/kg): -56 percentage variation
- percentage variation relative to the amount of estradiol at time 0, +6 h (seric estradiol; Subcutaneously, 1 mg/kg): -60 percentage variation

SMILES: CCSCC[C@]12CCC(=O)C=C1CC[C@@H]1C2=CC[C@]2(C)C(=O)CC[C@@H]12 [Example 2]
- IC50 [1, 3]: 870 nM
